Measured values reported in patent publication US12637464B2, “Tetracyclic compounds for treating brain disorders” (The Regents of the University of California, priority 2021, dated 2026).

Experiments:
PSYLI2 cells = test: PsychLight assays (agonist and antagonist mode); format: cell-based; conditions: FIG. 3C-3E; agonist mode concentration-response, antagonist mode 1 μM
Procedure: PsychLight Assays. Psychlight assays were performed using a previously published method. Briefly, glass bottom 96-well plates were coated with 50 μg/mL of poly-D-lysine overnight at room temperature and then washed with Dulbecco's PBS. PSYLI2 cells were suspended in DMEM containing 10% FBS with 5% penicillin-streptomycin, plated at a density of 40,000 cells/well, and incubated (37° C., 5% CO2) for 24 h prior to each experiment. Immediately before an experiment, stock solutions of drugs in DMSO were diluted 1:100 in imaging media distributed across an empty 96-well plate (treatment plate) following a randomized plate map. The imaging media consisted of 1×HBSS containing […] and […]. […] Data were from 2 plates with 2-3 wells being analyzed per plate. […]
Once imaging was complete, the images were exported, and analyzed using a custom Python script. […] The mask was generated by calculating the average fluorescence intensity for the entire image and using that value as a threshold. […] The % ΔF/F values for each well were calculated using the following equation: […]
Once imaging was complete, the images were exported, and analyzed using a custom Python script. […] The mask was generated by calculating the average fluorescence intensity for the entire image and using that value as a threshold. […]

C57BL/6J mice = test: Amphetamine induced locomotion; format: in vivo, mouse; conditions: pretreatment 1 mg/kg
Procedure: Amphetamine Induced Locomotion. The amphetamine-induced hyperlocomotion assay was performed using male and female C57BL/6J mice that were approximately 8 weeks old at the time of the experiments. Animals were first placed in the test arena (40 cm×40 cm) for 15 min to obtain a basal reading of locomotion and habituate them to the testing arena. Next, animals were administered (+)-JRT (1 mg/kg) or VEH (2.5 mL/kg, i.p) and placed back in the test arena. After 15 min, the animals were administered D-amphetamine (3 mg/kg) or VEH (2.5 mL/kg) and placed back in the test arena for 60 minutes. Locomotion during the entire experiment was quantified using ANYmaze Video Tracking System, version 7.07 (Stoelting Co.).

CCN(CC)C(=O)[C@@H]1C=C2c3cccc4ccn(c34)C[C@H]2N(C)C1 [(+)-JRT]
hallucinogenic potential (psychLight) (PSYLI2 cells): low hallucinogenic potential | AMPH-induced hyperlocomotion, female mice (C57BL/6J mice): can block
